The target of one assay is T1, HIF-1α in Panc-1 cells (Homo sapiens, UniProt Q16665).
T1 construct: endogenous in cells; host or cells: PANC-1
As to the kind of experiment: Cellular thermal shift assay. To be noted: 40 μM, samples heated to 54 °C. Type of assay: cell-based. The protocol:
Next, we used a cellular-thermal shift assay[40] to assess whether our lead molecule binds to HIF-1α in the intracellular environment. We observed a 2.9 ± 0.4-fold increased level of HIF-1α protein in Panc-1 (pancreatic cancer) cells treated with 40 μM cyclo-CRLII(4-iodo)F compared to DMSO control in samples heated to 54 °C, indicating intracellular binding of this compound to its protein target (Figure 6d). […]
highest pLDDT score was relaxes with the inbuilt amber energy minimisation and used for subsequent docking steps. HADDOCK docking was performed by assigning the HIF-1α PAS-B domain (residues 214-335) and CRLIIF residues 1, 5 and 6 as active residue binders and clustered using the inbuilt RMSD clustering algorithm.
Cellular Thermal Shift Assay
Pancreatic cancer cells (PANC-1) were plated in a T75 flask at 80% confluency overnight under normoxic conditions. The cells were then dosed with compound and incubated for 18 hours under hypoxic conditions (1% O2, 94% N2, 5% CO2, 80% Humidity). The cells were subsequently washed with PBS and divided into several aliquots, each of which was exposed to different temperatures (45°C, 48°C, 51°C, and 54°C) for 30 seconds on a thermal cycler (Bio-Rad). […] The concentration of the extracted proteins was measured using the BCA Protein Assay Kit (Sigma) following the manufacturer's instructions. […]

The next assay concerns CAIX in HeLa cells. Put plainly: qPCR of CAIX in HeLa cells. The assay is classed as cell-based. Particulars: hypoxic HeLa cells, vs DMSO-treated hypoxic cells. As for the experimental part:
The effect of our lead inhibitor on hypoxia-response signaling was measured by qPCR in cancer cell lines. Cells were treated with either 2 μM of an analogue of the HIF-2-specific inhibitor belzutifan, PT2399 (control), or 50 μM of cyclo-CRLII(4-iodo)F, incubated in hypoxia for 24 h, and the levels of the hypoxia-response genes CAIX([41],[42]) and VEGF([43]) were measured by qPCR. We observed a 51% drop in CAIX transcription and a 43% drop in VEGF transcription in hypoxic MCF-7 (breast cancer) cells treated with 50 μM of cyclo-CRLII(4-iodo)F versus hypoxic MCF-7 cells treated with DMSO only (Figure 6e). […] We also observed a 49% drop in CAIX expression in hypoxic HeLa (cervical cancer) cells treated with cyclo-CRLII(4-iodo)F (Figure S9b). […] We observed a 35% drop in HIF-2-driven VEGF transcription in 786-O cells treated with 50 μM of cyclo-CRLII(4-iodo)F compared to a 50% decrease in 786-O cells treated with PT2399.
Figure S9. (a) The effect of cyclo-CRLII(4-iodo)F on the viability of T-ReX-293 cells. […]
The Flp-In-HRE-eYFP cells were plated on 24-well plates at 80% confluency and incubated overnight under normoxic conditions. […] An equal amount of the supernatant from each treatment was plated on a 96-well plate, and the emission of eYFP was measured using a microplate reader. […]
For orientation: Real-time PCR tracks product formation cycle by cycle.

Where a SMILES comes first, the peptide text is derived from it. [ ]: non-standard residue; d: D form. Phe(4-I) = N[C@@H](Cc1ccc(I)cc1)C(=O)O

T1 sequence (Q16665 whole entry): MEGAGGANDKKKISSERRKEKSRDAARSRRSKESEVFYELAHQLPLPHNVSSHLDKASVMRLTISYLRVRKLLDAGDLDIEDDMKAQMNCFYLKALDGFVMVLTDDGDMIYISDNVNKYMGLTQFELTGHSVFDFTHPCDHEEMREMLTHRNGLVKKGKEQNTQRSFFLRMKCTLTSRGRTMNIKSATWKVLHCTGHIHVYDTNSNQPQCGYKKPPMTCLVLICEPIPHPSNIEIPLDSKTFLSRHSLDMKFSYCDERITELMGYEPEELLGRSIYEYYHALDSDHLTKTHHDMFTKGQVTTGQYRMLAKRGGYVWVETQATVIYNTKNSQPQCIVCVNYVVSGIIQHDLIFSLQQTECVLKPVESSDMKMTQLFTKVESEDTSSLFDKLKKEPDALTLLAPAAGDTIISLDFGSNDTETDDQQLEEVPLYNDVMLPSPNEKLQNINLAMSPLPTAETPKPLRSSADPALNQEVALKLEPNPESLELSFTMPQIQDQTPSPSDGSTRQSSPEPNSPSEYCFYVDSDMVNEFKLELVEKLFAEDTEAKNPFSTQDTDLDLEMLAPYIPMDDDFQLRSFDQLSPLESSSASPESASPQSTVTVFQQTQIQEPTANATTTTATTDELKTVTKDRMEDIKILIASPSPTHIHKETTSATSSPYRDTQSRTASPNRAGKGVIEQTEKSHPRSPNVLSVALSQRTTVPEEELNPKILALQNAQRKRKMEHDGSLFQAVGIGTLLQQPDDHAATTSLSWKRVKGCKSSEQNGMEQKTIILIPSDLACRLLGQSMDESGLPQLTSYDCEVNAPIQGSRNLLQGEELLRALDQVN

In the case of `CC[C@H](C)[C@@H]1NC(=O)[C@H](CC(C)C)NC(=O)[C@H](CCCNC(=N)N)NC(=O)[C@H](CS)NC(=O)[C@H](Cc2ccc(I)cc2)NC(=O)[C@H]([C@@H](C)CC)NC1=O` [cyclo-CRLII(4-iodo)F] (cyclo(CRLII[Phe(4-I)])), on HIF-1α in Panc-1 cells, the “increased level of HIF-1α protein compared to DMSO control” value worked out at 2.9 ± 0.4 fold. Also, in the assay with CAIX in HeLa cells, the “drop in CAIX expression” value was found to be 49%.

Values taken from article PMC10996005, “Identification and Development of Cyclic Peptide Inhibitors of Hypoxia Inducible Factors 1 and 2 That Disrupt Hypoxia-Response Signaling in Cancer Cells” (Journal of the American Chemical Society, 2024).
